Laboratory results published in patent publication US12643882B2, “Inhibitors of human respiratory syncytial virus and metapneumovirus” (priority 2022, dated 2026).
Like-named read-outs stand apart in the source and are kept apart here.

Assays:
hMPV-GFP virus = assay: microbe, parasite or virus in culture; assay type: cell-based, human metapneumovirus
Description: GFP expressing rgHMPV #3 p3 was generated in Dr. Buchholz's lab (Biacchesi S. et al., J Virol. 2007 June; 81(11): 6057-6067) and propagated in VERO cells (ATCC Cat #CCL-81) with a Multiplicity of Infection (MOI) of 0.1. Virus was harvested 4 days after infection by collecting cultured material and was freeze-thaw cycled in liquid nitrogen twice. Working virus stocks were generated from thawing frozen samples in 37° C. water bath, which were centrifuged at 218 g for 15 min at 4° C. 1/10 of 10×SPG (Biological Industries 06-3061-01-5A) were added and then mixed. The supernatant was aliquoted, frozen in liquid nitrogen, and then transferred to a −80° C. freezer for storage. Virus titer was determined by performing titration test in 96-well plates and calculate approximate virus titer using GFP event/well data.
Compound plates were prepared by dispensing compounds dissolved in DMSO into wells of a 384 well Corning 3985 polystyrene flat clear bottom optical imaging microplate (202.5 nL/well) using an ECHO acoustic dispenser. Each compound was tested in 10-point serial 3-fold dilution (typical final concentrations: 40,300 nM-2 nM). […] Continuous culture of VERO cells was maintained in complete culture media (OptiMEM supplemented with 2 mM GlutaMAX™ and 100 U/ml Penicillin-Streptomycin). To set up the assay, VERO cells were trypsinized with 0.25% Trypsin-EDTA until cells were dislodged, then cells were re-suspended with 1 mL FBS. Cells were spun down at 300 g for 5 minutes and cells were washed twice with culture media and counted using default parameters on ViCell. Cells were then diluted to 100,000 cells/mL (5,000 cells/50 μL) in complete culture media+TrypLE Select (80 μL/mL). hMPV-GFP virus was added to cells at 125,000 pfu/mL (MOI=1.25) and were mixed by gentle inversion. 10 μL/well of 100% DMSO was dispensed to CellTiter-Glo (CTG) assay Max_E controls wells. Cells were dispensed at 50 μL/well using Bravo and 50 μL filtered tips into compound plates. Plates were covered with MicroClime lids and loaded with 7.5 mL of assay media to minimize evaporation. Plates were lightly shaken for 10 minutes at room temperature and then incubated at 37° C. and 5% CO2 for 48 hrs. Following incubation, distinct GFP-expressing cells were counted using an Acumen imaging system with appropriate settings. A same-well CTG assay was performed by adding 10 μL/well reconstituted CellTiter-Glo reagent (Promega G7573) and plates were read on PerkinElmer Envision according to manufacturer's instructions. Raw data were loaded and analyzed in ActivityBase. Antiviral IC50 and cytotoxicity CC50 values were determined using a 4 parameter logistic fit based on the Levenberg-Marquardt algorithm. Model: 205-4 Parameter Logistic. • References: Wen Z, Citron M, Bett A J, Espeseth A S, Vora K A, Zhang L, DiStefano D J. Development and application of a higher throughput RSV plaque assay by immunofluorescent imaging. J Virol Methods. 2019 January; 263:88-95. doi: 10.1016/j.jviromet.2018.10.022. Epub 2018 Oct. 28. PMD: 30381239. • Biacchesi S, Murphy B R, Collins P L, Buchholz U J. Frequent frameshift and point mutations in the SH gene of human metapneumovirus passaged in vitro. J Virol. 2007 June; 81(11):6057-67. doi: 10.1128/JVL.00128-07. Epub 2007 Mar. 21. PMID: 17376897; PMCID: MC 1900297. Assay Data

RSV-A2-GFP virus = assay: microbe, parasite or virus in culture; assay type: cell-based, Human Respiratory Syncytial Virus
In short: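 Assay-ready frozen Calu-1 cells at 20,000 cells/mL were infected with recombinant RSV-A2-GFP (MOI 1.2) in DMEM with 2% FBS. Cells were exposed to 10-point 3-fold compound dilutions for 96 h at 37° C. GFP-positive cells were counted by imaging, with same-well CellTiter-Glo for cytotoxicity, and IC50 and CC50 came from 4-parameter logistic fits.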

[1] = human metapneumovirus, Vero, 48 h, read-out: hMPV EC50, VERO cells infected with hMPV-GFP, 48 hrs, GFP-expressing cells counted
[2] = human respiratory syncytial virus, Calu-1, 96 h, read-out: RSV EC50, Calu-1 cells infected with RSV-A2-GFP, 96 hrs, GFP-expressing cells counted
[3] = VERO cells infected with hMPV-GFP, 48 hrs, GFP-expressing cells counted, read-out: hMPV EC50
[4] = Calu-1 cells infected with RSV-A2-GFP, 96 hrs, GFP-expressing cells counted, read-out: RSV EC50

`Cc1nc(-c2ncccn2)sc1C(=O)N1C[C@@H]2[C@H](C1)[C@H]2Nc1cc(C(C)(C)N)cc(-c2ccc(F)cc2)n1` [Example 7, ((1R,5S,6s)-6-((4-(2-aminopropan-2-yl)-6-(4-fluorophenyl)pyridin-2-yl)amino)-3-azabicyclo[3.1.0]hexan-3-yl)(4-methyl-2-(pyrimidin-2-yl)thiazol-5-yl)methanone] gave an EC50 (hMPV-GFP virus; [1]) of over 100 nM and an EC50 (RSV-A2-GFP virus; [2]) of under 10 nM.

For `Cc1nc(-c2ncccn2)sc1C(=O)N1C[C@@H]2[C@H](C1)[C@H]2Oc1cc(C(C)(C)N)cc(-c2ccc(F)cc2)n1` [Example 8, ((1R,5S,6s)-6-((4-(2-aminopropan-2-yl)-6-(4-fluorophenyl)pyridin-2-yl)oxy)-3-azabicyclo[3.1.0]hexan-3-yl)(4-methyl-2-(pyrimidin-2-yl)thiazol-5-yl)methanone], the EC50 (hMPV-GFP virus; [1]) was 10 to 100 nM and the EC50 (RSV-A2-GFP virus; [2]) was under 10 nM.

Work on `CC(C)(N)c1cc(O[C@H]2[C@@H]3CN(C(=O)c4cnc(-c5ncccn5)s4)C[C@@H]32)nc(-c2ccc(F)cc2)c1` [Example 9, ((1R,5S,6s)-6-((4-(2-aminopropan-2-yl)-6-(4-fluorophenyl)pyridin-2-yl)oxy)-3-azabicyclo[3.1.0]hexan-3-yl)(2-(pyrimidin-2-yl)thiazol-5-yl)methanone] yielded an EC50 (hMPV-GFP virus; [1]) of over 100 nM and an EC50 (RSV-A2-GFP virus; [2]) of under 10 nM.

In the case of `CCc1nc(-c2ncccn2)sc1C(=O)N1C[C@@H]2[C@H](C1)[C@H]2Oc1cc(C(C)(C)N)cc(-c2ccc(F)cc2)n1` [Example 10, ((1R,5S,6s)-6-((4-(2-aminopropan-2-yl)-6-(4-fluorophenyl)pyridin-2-yl)oxy)-3-azabicyclo[3.1.0]hexan-3-yl)(4-ethyl-2-(pyrimidin-2-yl)thiazol-5-yl)methanone], the EC50 (hMPV-GFP virus; [3]) is reported as 10 to 100 nM and the EC50 (RSV-A2-GFP virus; [4]) is reported as under 10 nM.

`CC(C)(N)c1cc(O[C@H]2[C@@H]3CN(C(=O)c4sc(-c5ncccn5)nc4C(F)(F)F)C[C@@H]32)nc(-c2ccc(F)cc2)c1` [Example 11, ((1R,5S,6s)-6-((4-(2-aminopropan-2-yl)-6-(4-fluorophenyl)pyridin-2-yl)oxy)-3-azabicyclo[3.1.0]hexan-3-yl)(2-(pyrimidin-2-yl)-4-(trifluoromethyl)thiazol-5-yl)methanone] was tested, and the EC50 (hMPV-GFP virus; [3]) was over 100 nM and the EC50 (RSV-A2-GFP virus; [4]) was under 10 nM.

Compound `Cc1nc(-c2ccccn2)sc1C(=O)N1C[C@@H]2[C@H](C1)[C@H]2Oc1cc(C(C)(C)N)cc(-c2ccc(F)cc2)n1` [Example 12, ((1R,5S,6s)-6-((4-(2-aminopropan-2-yl)-6-(4-fluorophenyl)pyridin-2-yl)oxy)-3-azabicyclo[3.1.0]hexan-3-yl)(4-methyl-2-(pyridin-2-yl)thiazol-5-yl)methanone] has an EC50 (hMPV-GFP virus; [3]) of over 100 nM and an EC50 (RSV-A2-GFP virus; [4]) of under 10 nM.

With `Cc1nc(-c2ncccn2)sc1C(=O)N1C[C@@H]2[C@H](C1)[C@H]2Oc1cc(C(C)(C)N)cc(-c2cc(F)c(F)c(F)c2)n1` [Example 13, ((1R,5S,6s)-6-((4-(2-aminopropan-2-yl)-6-(3,4,5-trifluorophenyl)pyridin-2-yl)oxy)-3-azabicyclo[3.1.0]hexan-3-yl)(4-methyl-2-(pyrimidin-2-yl)thiazol-5-yl)methanone] the EC50 (hMPV-GFP virus; [1]) was 10 to 100 nM and the EC50 (RSV-A2-GFP virus; [2]) was under 10 nM.

For `Cc1nc(-c2ncccn2)sc1C(=O)N1C[C@@H]2[C@H](C1)[C@H]2Oc1cc(C(C)(C)N)cc(-c2ccc(F)c(F)c2F)n1` [Example 14, ((1R,5S,6s)-6-((4-(2-aminopropan-2-yl)-6-(2,3,4-trifluorophenyl)pyridin-2-yl)oxy)-3-azabicyclo[3.1.0]hexan-3-yl)(4-methyl-2-(pyrimidin-2-yl)thiazol-5-yl)methanone], the EC50 (hMPV-GFP virus; [3]) was 10 to 100 nM and the EC50 (RSV-A2-GFP virus; [4]) was under 10 nM.

Compound `Cc1nc(-c2ncccn2)sc1C(=O)N1C[C@@H]2[C@H](C1)[C@H]2Oc1cc(C(C)(C)N)cc(-c2cccc(F)c2)n1` [Example 16, ((1R,5S,6s)-6-((4-(2-aminopropan-2-yl)-6-(3-fluorophenyl)pyridin-2-yl)oxy)-3-azabicyclo[3.1.0]hexan-3-yl)(4-methyl-2-(pyrimidin-2-yl)thiazol-5-yl)methanone] has an EC50 (hMPV-GFP virus; [3]) of 10 to 100 nM and an EC50 (RSV-A2-GFP virus; [4]) of under 10 nM.

`Cc1nc(-c2ncccn2)sc1C(=O)N1C[C@@H]2[C@H](C1)[C@H]2Oc1cc(C(C)(C)N)cc(-c2ccc(F)c(Cl)c2)n1` [Example 17, ((1R,5S,6s)-6-((4-(2-aminopropan-2-yl)-6-(3-chloro-4-fluorophenyl)pyridin-2-yl)oxy)-3-azabicyclo[3.1.0]hexan-3-yl)(4-methyl-2-(pyrimidin-2-yl)thiazol-5-yl)methanone] showed an EC50 (hMPV-GFP virus; [3]) of 10 to 100 nM and an EC50 (RSV-A2-GFP virus; [4]) of under 10 nM.

`Cc1nc(-c2ncccn2)sc1C(=O)N1C[C@@H]2[C@H](C1)[C@H]2Oc1cc(C(C)(C)N)cc(-c2ccc(Cl)c(F)c2)n1` [Example 18, ((1R,5S,6s)-6-((4-(2-aminopropan-2-yl)-6-(4-chloro-3-fluorophenyl)pyridin-2-yl)oxy)-3-azabicyclo[3.1.0]hexan-3-yl)(4-methyl-2-(pyrimidin-2-yl)thiazol-5-yl)methanone] was tested, and the EC50 (hMPV-GFP virus; [3]) was 10 to 100 nM and the EC50 (RSV-A2-GFP virus; [4]) was under 10 nM.

Work on `Cc1nc(-c2ncccn2)sc1C(=O)N1C[C@@H]2[C@H](C1)[C@H]2Oc1cc(C(C)(C)N)cc(-c2ccc(Cl)cc2)n1` [Example 19, ((1R,5S,6s)-6-((4-(2-aminopropan-2-yl)-6-(4-chlorophenyl)pyridin-2-yl)oxy)-3-azabicyclo[3.1.0]hexan-3-yl)(4-methyl-2-(pyrimidin-2-yl)thiazol-5-yl)methanone] yielded an EC50 (hMPV-GFP virus; [3]) of under 10 nM and an EC50 (RSV-A2-GFP virus; [4]) of under 10 nM.

In the case of `Cc1nc(-c2ncccn2)sc1C(=O)N1C[C@@H]2[C@H](C1)[C@H]2Oc1cc(C(C)(C)N)cc(-c2ccccc2)n1` [Example 20, ((1R,5S,6s)-6-((4-(2-aminopropan-2-yl)-6-phenylpyridin-2-yl)oxy)-3-azabicyclo[3.1.0]hexan-3-yl)(4-methyl-2-(pyrimidin-2-yl)thiazol-5-yl)methanone], the EC50 (hMPV-GFP virus; [3]) is reported as over 100 nM and the EC50 (RSV-A2-GFP virus; [4]) is reported as under 10 nM.

`Cc1nc(-c2ncccn2)sc1C(=O)N1C[C@@H]2[C@H](C1)[C@H]2Oc1cc(C(C)(C)N)cc(-c2ccc(C3CC3)cc2)n1` [Example 22, ((1R,5S,6s)-6-((4-(2-aminopropan-2-yl)-6-(4-cyclopropylphenyl)pyridin-2-yl)oxy)-3-azabicyclo[3.1.0]hexan-3-yl)(4-methyl-2-(pyrimidin-2-yl)thiazol-5-yl)methanone] gave an EC50 (hMPV-GFP virus; [3]) of over 100 nM and an EC50 (RSV-A2-GFP virus; [4]) of under 10 nM.

With `Cc1nc(-c2ncccn2)sc1C(=O)N1C[C@@H]2[C@H](C1)[C@H]2Oc1cc(C(C)(C)N)cc(-c2ccc(C#N)cc2)n1` [Example 23, 4-(4-(2-aminopropan-2-yl)-6-(((1R,5S,6s)-3-(4-methyl-2-(pyrimidin-2-yl)thiazole-5-carbonyl)-3-azabicyclo[3.1.0]hexan-6-yl)oxy)pyridin-2-yl)benzonitrile] the EC50 (hMPV-GFP virus; [3]) was over 100 nM and the EC50 (RSV-A2-GFP virus; [4]) was under 10 nM.

In the case of `Cc1nc(-c2ncccn2)sc1C(=O)N1C[C@@H]2[C@H](C1)[C@H]2Oc1cc(C(C)(C)N)cc(-c2ccc(OC(F)F)cc2)n1` [Example 24, ((1R,5S,6s)-6-((4-(2-aminopropan-2-yl)-6-(4-(difluoromethoxy)phenyl)pyridin-2-yl)oxy)-3-azabicyclo[3.1.0]hexan-3-yl)(4-methyl-2-(pyrimidin-2-yl)thiazol-5-yl)methanone], the EC50 (hMPV-GFP virus; [3]) is reported as 10 to 100 nM and the EC50 (RSV-A2-GFP virus; [4]) is reported as under 10 nM.
